From US6423689B1, “Peptidyl calcium channel blockers” (Warner-Lambert Company, priority 1997, dated 2002)

What follows are molecules tested against T1, N-type Ca2+ channels in IMR-32 cells (Homo sapiens, UniProt Q00975) (assay: Inhibition of N-type calcium flux in IMR-32 cells (Indo-1 fluorescence, nitrendipine present)). Details: IMR-32.
T1 construct: host or cells: IMR-32 cells, differentiated with dibutyryl cAMP and bromodeoxyuridine
Assay type: cell-based
Outline: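 With L-type flux blocked by 5 μM nitrendipine, N-type Ca2+ entry was read as the Indo-1 emission ratio (400/490 nm, excitation 350 nm) at 30° C after KCl depolarization.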

T1 sequence (Q00975 whole entry): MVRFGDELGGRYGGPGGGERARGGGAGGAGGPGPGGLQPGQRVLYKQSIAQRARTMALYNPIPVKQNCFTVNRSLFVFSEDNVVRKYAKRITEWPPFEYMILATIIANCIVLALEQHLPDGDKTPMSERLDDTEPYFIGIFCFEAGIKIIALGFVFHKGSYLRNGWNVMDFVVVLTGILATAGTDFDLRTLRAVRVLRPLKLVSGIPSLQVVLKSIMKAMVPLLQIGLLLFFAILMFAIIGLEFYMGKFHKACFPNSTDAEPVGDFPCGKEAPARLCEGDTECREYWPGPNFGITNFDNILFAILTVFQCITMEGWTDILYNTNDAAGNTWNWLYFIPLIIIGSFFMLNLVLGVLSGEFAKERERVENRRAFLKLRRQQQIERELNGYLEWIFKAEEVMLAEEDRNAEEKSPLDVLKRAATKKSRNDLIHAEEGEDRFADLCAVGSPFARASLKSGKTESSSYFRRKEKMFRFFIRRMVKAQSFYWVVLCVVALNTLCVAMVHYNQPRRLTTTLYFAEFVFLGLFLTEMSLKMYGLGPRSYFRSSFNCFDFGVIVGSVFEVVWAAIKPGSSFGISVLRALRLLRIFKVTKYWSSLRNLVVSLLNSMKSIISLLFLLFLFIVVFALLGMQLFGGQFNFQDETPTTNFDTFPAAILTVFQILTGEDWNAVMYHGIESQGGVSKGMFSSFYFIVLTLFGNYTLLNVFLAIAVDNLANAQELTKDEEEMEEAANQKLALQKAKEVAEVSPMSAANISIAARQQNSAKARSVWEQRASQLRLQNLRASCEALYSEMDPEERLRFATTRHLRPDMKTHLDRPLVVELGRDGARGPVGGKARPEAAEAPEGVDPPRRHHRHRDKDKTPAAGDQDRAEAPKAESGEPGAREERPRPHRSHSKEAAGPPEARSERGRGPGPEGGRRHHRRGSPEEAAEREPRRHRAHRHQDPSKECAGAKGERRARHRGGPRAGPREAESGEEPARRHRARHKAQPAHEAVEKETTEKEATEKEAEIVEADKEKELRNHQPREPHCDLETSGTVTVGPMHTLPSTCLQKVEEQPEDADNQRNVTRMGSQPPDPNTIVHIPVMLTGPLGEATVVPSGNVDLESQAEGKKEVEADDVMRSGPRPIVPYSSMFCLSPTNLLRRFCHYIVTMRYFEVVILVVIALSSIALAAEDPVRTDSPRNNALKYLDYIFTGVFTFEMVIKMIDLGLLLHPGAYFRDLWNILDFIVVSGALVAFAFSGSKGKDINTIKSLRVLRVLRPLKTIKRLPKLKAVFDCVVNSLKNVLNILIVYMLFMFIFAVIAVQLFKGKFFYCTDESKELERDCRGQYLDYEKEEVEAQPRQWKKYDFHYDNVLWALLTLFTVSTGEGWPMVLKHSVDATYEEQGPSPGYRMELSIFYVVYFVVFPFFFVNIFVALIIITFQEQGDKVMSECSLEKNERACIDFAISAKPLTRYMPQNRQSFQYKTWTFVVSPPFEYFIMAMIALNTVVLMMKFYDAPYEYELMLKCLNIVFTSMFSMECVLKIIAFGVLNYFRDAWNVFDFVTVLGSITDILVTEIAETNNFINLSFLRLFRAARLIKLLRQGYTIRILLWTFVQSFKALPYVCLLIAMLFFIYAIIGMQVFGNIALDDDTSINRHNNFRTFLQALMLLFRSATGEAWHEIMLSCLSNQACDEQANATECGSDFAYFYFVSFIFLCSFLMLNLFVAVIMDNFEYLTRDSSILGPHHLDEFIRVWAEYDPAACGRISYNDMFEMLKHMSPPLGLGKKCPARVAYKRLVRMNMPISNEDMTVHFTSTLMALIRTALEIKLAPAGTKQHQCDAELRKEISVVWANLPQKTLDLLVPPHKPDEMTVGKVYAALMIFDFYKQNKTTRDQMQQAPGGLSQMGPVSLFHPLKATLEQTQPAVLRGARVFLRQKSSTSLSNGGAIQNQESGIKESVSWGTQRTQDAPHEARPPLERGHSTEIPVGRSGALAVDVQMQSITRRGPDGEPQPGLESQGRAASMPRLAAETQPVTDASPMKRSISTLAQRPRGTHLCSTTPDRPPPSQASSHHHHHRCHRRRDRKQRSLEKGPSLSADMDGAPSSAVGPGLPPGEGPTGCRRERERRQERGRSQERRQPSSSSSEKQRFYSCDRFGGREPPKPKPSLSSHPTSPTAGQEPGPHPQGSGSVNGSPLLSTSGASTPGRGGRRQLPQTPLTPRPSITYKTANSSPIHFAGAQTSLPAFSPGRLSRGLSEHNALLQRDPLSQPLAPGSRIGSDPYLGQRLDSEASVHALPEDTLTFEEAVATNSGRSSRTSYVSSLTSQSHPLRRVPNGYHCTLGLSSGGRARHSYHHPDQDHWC
T1 sequence (P54289 25-956 partner limits assumed): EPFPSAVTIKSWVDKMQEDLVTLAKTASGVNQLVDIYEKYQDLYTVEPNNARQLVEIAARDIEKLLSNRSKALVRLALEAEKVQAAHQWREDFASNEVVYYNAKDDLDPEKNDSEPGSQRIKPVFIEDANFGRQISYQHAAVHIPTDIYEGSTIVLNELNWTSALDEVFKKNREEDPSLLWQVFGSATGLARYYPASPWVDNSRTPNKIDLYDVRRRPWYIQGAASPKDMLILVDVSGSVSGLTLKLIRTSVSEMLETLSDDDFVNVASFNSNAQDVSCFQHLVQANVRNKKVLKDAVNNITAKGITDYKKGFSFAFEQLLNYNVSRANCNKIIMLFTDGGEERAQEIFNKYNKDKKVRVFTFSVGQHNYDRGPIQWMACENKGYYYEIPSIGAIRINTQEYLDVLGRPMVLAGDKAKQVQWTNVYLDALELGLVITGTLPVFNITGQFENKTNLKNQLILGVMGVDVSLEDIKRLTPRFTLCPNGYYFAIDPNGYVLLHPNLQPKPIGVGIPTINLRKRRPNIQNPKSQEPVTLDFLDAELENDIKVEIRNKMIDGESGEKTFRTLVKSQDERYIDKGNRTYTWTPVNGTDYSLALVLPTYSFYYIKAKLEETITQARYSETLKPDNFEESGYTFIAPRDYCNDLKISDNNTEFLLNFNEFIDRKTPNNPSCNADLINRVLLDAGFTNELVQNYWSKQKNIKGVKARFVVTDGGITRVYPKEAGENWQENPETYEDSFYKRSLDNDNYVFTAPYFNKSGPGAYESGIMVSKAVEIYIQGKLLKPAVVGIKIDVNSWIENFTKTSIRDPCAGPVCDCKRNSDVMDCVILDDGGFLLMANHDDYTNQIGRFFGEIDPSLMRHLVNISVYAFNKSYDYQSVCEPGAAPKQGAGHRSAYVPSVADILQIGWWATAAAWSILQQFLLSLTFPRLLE
T1 sequence (P54289 957-1103 partner limits assumed): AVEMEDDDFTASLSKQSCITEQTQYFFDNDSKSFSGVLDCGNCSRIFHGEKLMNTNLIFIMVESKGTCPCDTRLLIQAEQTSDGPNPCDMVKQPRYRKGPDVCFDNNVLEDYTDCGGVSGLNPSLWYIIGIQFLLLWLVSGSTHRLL
T1 sequence (P54284 whole entry partner): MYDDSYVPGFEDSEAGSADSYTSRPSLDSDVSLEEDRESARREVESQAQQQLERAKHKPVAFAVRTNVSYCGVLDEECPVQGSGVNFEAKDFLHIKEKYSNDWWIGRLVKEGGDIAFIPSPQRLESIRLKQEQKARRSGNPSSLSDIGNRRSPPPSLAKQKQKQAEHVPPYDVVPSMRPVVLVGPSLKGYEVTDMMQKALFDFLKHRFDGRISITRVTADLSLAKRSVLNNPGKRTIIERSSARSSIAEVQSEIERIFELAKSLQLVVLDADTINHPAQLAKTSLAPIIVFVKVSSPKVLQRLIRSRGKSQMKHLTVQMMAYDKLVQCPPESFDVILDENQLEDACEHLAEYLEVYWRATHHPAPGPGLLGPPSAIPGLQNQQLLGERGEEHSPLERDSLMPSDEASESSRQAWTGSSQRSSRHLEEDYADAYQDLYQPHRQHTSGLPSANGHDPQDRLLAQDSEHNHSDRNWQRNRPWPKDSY

| SMILES | inhibition at 1 µM | inhibition at 10 µM |
| --- | --- | --- |
| CC(C)C[C@H](NC(=O)N1CCCCCC1)C(=O)N[C@@H](Cc1ccc(OCc2ccccc2)cc1)C(=O)N1CCN(C)CC1 [Example 176, [S-(R*,R*)]-Azepane-1-carboxylic acid {1-[1-(4-benzyloxy-benzyl)-2-(4-methyl-piperazin-1-yl)-2-oxo-ethylcarbamoyl]-3-methyl-butyl}-amide] | 38% | 86% |
| CC(C)C[C@H](NC(=O)N1CCCCCC1)C(=O)N[C@@H](Cc1ccc(OCc2ccccc2)cc1)C(=O)NCCCN1CCN(C)CC1 [Example 187, [S-(R*,R*)]-Azepane-1-carboxylic acid (1-{2-(4-benzyloxy-phenyl)-1-[3-(4-methyl-piperazin-1-yl)-propylcarbamoyl]-ethylcarbamoyl}-3-methyl-butyl)-amide] | 20% | 77% |

The remaining lines, values ahead:

| inhibition at 1 µM | inhibition at 10 µM | SMILES |
| --- | --- | --- |
| 36% | 86% | CC(C)C[C@H](NC(=O)N1CCCCCC1)C(=O)N[C@@H](Cc1ccc(OCc2ccccc2)cc1)C(=O)N1CC(C)OC(C)C1 (stereo partly drawn) [Example 199, [S-(R*,R*)]-Azepane-1-carboxylic acid {1-[1-(4-benzyloxy-benzyl)-2-(2,6-dimethyl-morpholin-4-yl)-2-oxo-ethylcarbamoyl]-3-methyl-butyl}-amide] |
| 53% | 88% | CC(C)CC(NC(=O)N1CCCCCC1)C(=O)NC(Cc1ccc(OCc2ccccc2)cc1)C(=O)N1CCCC(C)C1 (stereo not drawn) [Example 200, Azepane-1-carboxylic acid {1-[1-(4-benzyloxy-benzyl)-2-(3-methyl-piperidin-1-yl)-2-oxo-ethylcarbamoyl]-3-methyl-butyl}-amide] |
| 29% | 81% | CC(C)C[C@H](NC(=O)N1CCCCCC1)C(=O)N[C@@H](Cc1ccc(OCc2ccccc2)cc1)C(=O)N1CCc2ccccc2C1 [Example 201, [S-(R*,R*)]-Azepane-1-carboxylic acid {1-[1-(4-benzyloxy-benzyl)-2-(3,4-dihydro-1H-isoquinolin-2-yl)-2-oxo-ethylcarbamoyl]-3-methyl-butyl}-amide] |

Same assay, conditions: IMR-32 cells, 5 μM nitrendipine, K+ depolarization

| SMILES | IC50 |
| --- | --- |
| CC(C)(C)NC(=O)[C@H](Cc1ccc(OCc2ccccc2)cc1)NC(=O)[C@H](Cc1ccc(OC(C)(C)C)cc1)NC(=O)N1CCCCCC1 [Example 163, [S-(R*,R*)]-Azepane-1-carboxylic acid [1-[2-(4-benzyloxy-phenyl)-1-tert-butylcarbamoyl-ethylcarbamoyl]-2-(4-tert-butoxy-phenyl)-ethyl]-amide] | 490 nM |
| CC(C)(C)NC(=O)[C@H](Cc1ccc(OCc2ccccc2)cc1)NC(=O)[C@H](CCCCC(=O)OC(C)(C)C)NC(=O)N1CCCCCC1 [Example 164, [S-(R*,R*)]-6-[(Azepane-1-carbonyl)-amino]-6-[2-(4-benzyloxy-phenyl)-1-tert-butylcarbamoyl-ethylcarbamoyl]-hexanoic acid tert-butyl ester] | 900 nM |
| CC(C)C[C@H](NC(=O)N1CCCCCC1)C(=O)N[C@@H](Cc1ccc(OCc2ccccc2)cc1)C(=O)N1CCOCC1 [Example 166, [S-(R*,R*)]-Azepane-1-carboxylic acid {1-[1-(4-benzyloxy-benzyl)-2-morpholin-4-yl-2-oxo-ethylcarbamoyl]-3-methyl-butyl}-amide] | 1300 nM |
| CCCCCCNC(=O)[C@H](Cc1ccc(OCc2ccccc2)cc1)NC(=O)[C@H](CC(C)C)NC(=O)N1CCCCCC1 [Example 168, [S-(R*,R*)]-Azepane-1-carboxylic acid {1-[2-(4-benzyloxy-phenyl)-1-hexylcarbamoyl-ethylcarbamoyl]-3-methyl-butyl}-amide] | 680 nM |
| CCCNC(=O)[C@H](Cc1ccc(OCc2ccccc2)cc1)NC(=O)[C@H](CC(C)C)NC(=O)N1CCCCCC1 [Example 169, [S-(R*,R*)]-Azepane-1-carboxylic acid {1-[2-(4-benzyloxy-phenyl)-1-propylcarbamoyl-ethylcarbamoyl]-3-methyl-butyl}-amide] | 1600 nM |
| CC(C)C[C@H](NC(=O)N1CCCCCC1)C(=O)N[C@@H](Cc1ccc(OCc2ccccc2)cc1)C(=O)NCCN1CCCC1=O [Example 170, [S-(R*,R*)]-Azepane-1-carboxylic acid (1-{2-(4-benzyloxy-phenyl)-1-[2-(2-oxo-pyrrolidin-1yl)-ethylcarbamoyl]-ethylcarbamoyl}-3-methyl-butyl)-amide] | 1300 nM |
| CC(C)C[C@H](NC(=O)N1CCCCCC1)C(=O)N[C@@H](Cc1ccc(OCc2ccccc2)cc1)C(=O)NCCc1c[nH]cn1 [Example 172, [S-(R*,R*)]-Azepane-1-carboxylic acid (1-{2-(4-benzyloxy-phenyl)-1-[2-(1H-imidazol-4-yl)ethylcarbamoyl]-ethylcarbamoyl}-3-methyl-butyl)-amide] | 2300 nM |
| CC(C)C[C@H](NC(=O)N1CCCCCC1)C(=O)N[C@@H](Cc1ccc(OCc2ccccc2)cc1)C(=O)NCCN(C)C [Example 175, [S-(R*,R*)]-Azepane-1-carboxylic acid {1-[2-(4-benzyloxy-phenyl)-1-(2-dimethylamino-ethylcarbamoyl)-ethylcarbamoyl]-3-methyl-butyl}-amide] | 2700 nM |
| CC(C)C[C@H](NC(=O)N1CCCCCC1)C(=O)N[C@@H](Cc1ccc(OCc2ccccc2)cc1)C(=O)N1CCN(C)CC1 [Example 176, [S-(R*,R*)]-Azepane-1-carboxylic acid {1-[1-(4-benzyloxy-benzyl)-2-(4-methyl-piperazin-1-yl)-2-oxo-ethylcarbamoyl]-3-methyl-butyl}-amide] | 1400 nM |
| CC(C)C[C@H](NC(=O)N1CCCCCC1)C(=O)N[C@@H](Cc1ccc(OCc2ccccc2)cc1)C(=O)NCc1ccncc1 [Example 178, [S-(R*,R*)]-Azepane-1-carboxylic acid (1-{2-(4-benzyloxy-phenyl)-1-[(pyridin-4-ylmethyl)carbamoyl]-ethylcarbamoyl}-3-methyl-butyl)-amide] | 3100 nM |
| CC(C)C[C@H](NC(=O)N1CCCCCC1)C(=O)N[C@@H](Cc1ccc(OCc2ccccc2)cc1)C(=O)N1CCC[C@H]1CN1CCCC1 [Example 179, Azepane-1-carboxylic acid {(S)-1-[(S)-1-(4-benzyloxy-benzyl)-2-oxo-2-[(S)-2-pyrrolidin-1-ylmethyl-pyrrolidin-1-yl]-ethylcarbamoyl]-3-methyl-butyl}-amide] | 1400 nM |
| CC(C)C[C@H](NC(=O)N1CCCCCC1)C(=O)N[C@@H](Cc1ccc(OCc2ccccc2)cc1)C(=O)NCCN1CCCC1 [Example 181, [S-(R*,R*)]-Azepane-1-carboxylic acid {1-[2-(4-benzyloxy-phenyl)-1-(2-pyrrolidin-1-ylethylcarbamoyl)-ethylcarbamoyl]3-methyl-butyl}-amide] | 2800 nM |
| CC(C)C[C@H](NC(=O)N1CCCCCC1)C(=O)NC(Cc1ccc(OCc2ccccc2)cc1)C(=O)N[C@@H]1CN2CCC1CC2 (stereo partly drawn) [Example 182, Azepane-1-carboxylic acid {(S)-1-[-1-[(S)-1-aza-bicyclo [2.2.2]-3-ylcarbamoyl]-2-(4-benzyloxy-phenyl)-ethylcarbamoyl]-3-methyl-butyl}-amide] | 7700 nM |
| CC(C)C[C@H](NC(=O)N1CCCCCC1)C(=O)N[C@@H](Cc1ccc(OCc2ccccc2)cc1)C(=O)N1CCC(N2CCCCC2)CC1 [Example 185, [S-(R*,R*)]-Azepane-1-carboxylic acid {1-[1-(4-benzyloxy-benzyl)-2-[1,4′]bipiperidinyl-1′-yl-2-oxo-ethylcarbamoyl]-3-methyl-butyl}-amide] | 2300 nM |
| CC(C)C[C@H](NC(=O)N1CCCCCC1)C(=O)N[C@@H](Cc1ccc(OCc2ccccc2)cc1)C(=O)NCCCN1CCN(C)CC1 [Example 187, [S-(R*,R*)]-Azepane-1-carboxylic acid (1-{2-(4-benzyloxy-phenyl)-1-[3-(4-methyl-piperazin-1-yl)-propylcarbamoyl]-ethylcarbamoyl}-3-methyl-butyl)-amide] | 4000 nM |
| CCN(CC)C(=O)C1CCCN(C(=O)C(Cc2ccc(OCc3ccccc3)cc2)NC(=O)C(CC(C)C)NC(=O)N2CCCCCC2)C1 (stereo not drawn) [Example 188, Azepane-1-carboxylic acid {1-[1-(4-benzyloxy-benzyl)-2-(3-diethylcarbamoyl-piperidin-1-yl)-2-oxo-ethylcarbamoyl]-3-methyl-butyl}-amide] | 780 nM |

Continued, values first:

| IC50 | SMILES |
| --- | --- |
| 940 nM | CCN(CC)C(=O)C1CCCN(C(=O)C(Cc2ccc(OCc3ccccc3)cc2)NC(=O)C(CC(C)C)NC(=O)N2CCCCCC2)C1 (stereo not drawn) [Example 189, Azepane-1-carboxylic acid {1-[1-(4-benzyloxy-benzyl)-2-(3-diethylcarbamoyl-piperidin-1-yl)-2-oxo-ethylcarbamoyl]-3-methyl-butyl}-amide] |
| 790 nM | CC(C)CC(NC(=O)N1CCCCCC1)C(=O)NC(Cc1ccc(OCc2ccccc2)cc1)C(=O)NCC(O)c1ccccc1 (stereo not drawn) [Example 190, Azepane-1-carboxylic acid {1-[2-(4-benzyloxy-phenyl)-1-(2-hydroxy-2phenyl-ethylcarbamoyl)-ethylcarbamoyl]-3-methyl-butyl}-amide] |
| 3200 nM | CC(C)CC(NC(=O)N1CCCCCC1)C(=O)NC(Cc1ccc(OCc2ccccc2)cc1)C(=O)NCCC1CCCN1C (stereo not drawn) [Example 193, Azepane-1-carboxylic acid (1-{2-(4-benzyloxy-phenyl)-1-[2-(1-methyl-pyrrolidin-2-yl)-ethylcarbamoyl]-ethylcarbamoyl}-3-methyl-butyl)-amide] |
| 580 nM | CCCN1CCCC(NC(=O)C(Cc2ccc(OCc3ccccc3)cc2)NC(=O)C(CC(C)C)NC(=O)N2CCCCCC2)C1 (stereo not drawn) [Example 195, Azepane-1-carboxylic acid {1-[2-(4-benzyloxy-phenyl)-1-(1-propyl-piperidin-3-ylcarbamoyl)-ethylcarbamoyl]-3-methyl-butyl}-amide] |
| 700 nM | CC(C)CC(NC(=O)N1CCCCCC1)C(=O)NC(Cc1ccc(OCc2ccccc2)cc1)C(=O)NCCCN1CCCCC1C (stereo not drawn) [Example 196, Azepane-1-carboxylic acid (1-{2-(4-benzyloxy-phenyl)-1-[3-(2-methyl-piperidin-1-yl)-propylcarbamoyl]-ethylcarbamoyl}-3-methyl-butyl)-amide] |
| 220 nM | CC(C)CC(NC(=O)N1CCCCCC1)C(=O)NC(Cc1ccc(OCc2ccccc2)cc1)C(=O)NC1CCCN(C)C1c1ccccc1 (stereo not drawn) [Example 197, Azepane-1-carboxylic acid {1-[2-(4-benzyloxy-phenyl)-1-(1-methyl-2-phenyl-piperidin-3-ylcarbamoyl)-ethylcarbamoyl]-3-methyl-butyl}-amide] |
| 360 nM | CC(C)CC(NC(=O)N1CCCCCC1)C(=O)NC(Cc1ccc(OCc2ccccc2)cc1)C(=O)NC1CCCN(CC(C)C)C1 (stereo not drawn) [Example 198, Azepane-1-carboxylic acid {1-[2-(4-benzyloxy-phenyl)-1-(1-isobutyl-piperidin-3-ylcarbamoyl)-ethylcarbamoyl]-3-methyl-butyl}-amide] |
| 1800 nM | CC(C)C[C@H](NC(=O)N1CCCCCC1)C(=O)N[C@@H](Cc1ccc(OCc2ccccc2)cc1)C(=O)N1CC(C)OC(C)C1 (stereo partly drawn) [Example 199, [S-(R*,R*)]-Azepane-1-carboxylic acid {1-[1-(4-benzyloxy-benzyl)-2-(2,6-dimethyl-morpholin-4-yl)-2-oxo-ethylcarbamoyl]-3-methyl-butyl}-amide] |
| 900 nM | CC(C)CC(NC(=O)N1CCCCCC1)C(=O)NC(Cc1ccc(OCc2ccccc2)cc1)C(=O)N1CCCC(C)C1 (stereo not drawn) [Example 200, Azepane-1-carboxylic acid {1-[1-(4-benzyloxy-benzyl)-2-(3-methyl-piperidin-1-yl)-2-oxo-ethylcarbamoyl]-3-methyl-butyl}-amide] |
| 2400 nM | CC(C)C[C@H](NC(=O)N1CCCCCC1)C(=O)N[C@@H](Cc1ccc(OCc2ccccc2)cc1)C(=O)N1CCc2ccccc2C1 [Example 201, [S-(R*,R*)]-Azepane-1-carboxylic acid {1-[1-(4-benzyloxy-benzyl)-2-(3,4-dihydro-1H-isoquinolin-2-yl)-2-oxo-ethylcarbamoyl]-3-methyl-butyl}-amide] |
